Here are results for 12 molecules from patent US20230382924A1, “MODULATORS OF CYSTIC FIBROSIS TRANSMEMBRANE CONDUCTANCE REGULATOR” (VERTEX PHARMACEUTICALS INCORPORATED, priority 2020, published 2023).

The target in series [1] is T1, CFTR (Homo sapiens, UniProt P13569). In words: Membrane Potential Dye, Enteroid Assay A. Particulars: for EC50: read-out: Ent. A EC50. In kind it is cell-based. The essentials:
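Signal is reported as % Activity relative to a triple CFTR modulator control (3 μM + 3 μM + 300 nM acute). Read-out: membrane potential fluorescence (20 μM methyl oxonol) monitored for 15 min after chloride-free stimulation. Dye loading took 25 min at room temperature in Bath 1 buffer containing CaCC blockers.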

Series [2] addresses T2, F508del (Homo sapiens, UniProt P13569, DEL508-508).
T2 construct: expressed in transfected cells
In words: 3T3 assay: membrane potential optical assay for F508del correction in NIH 3T3 cells. In kind it is cell-based. The essentials:
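NIH 3T3 mouse fibroblasts stably expressing F508del were incubated with corrector compounds at a range of concentrations for 16–24 h at 37° C, then loaded with a redistribution voltage-sensing dye. A single addition of forskolin under a chloride gradient (gluconate-substituted bath, pH 7.4) gave the membrane-potential response, read by FLIPR.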

Series [3] addresses T1, CFTR. Briefly: Membrane Potential Dye, Enteroid Assay B. Conditions: for EC50: read-out: Ent. B EC50. The series is classed as cell-based. The essentials: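 Enteroid cells loaded 25 min at room temperature with 20 μM methyl oxonol plus 30 μM CaCCinh-A01 and 30 μM Chicago Sky Blue, then switched to chloride-free gluconate buffer. Chloride transport was started by chloride-free stimulation solution, with fluorescence read for 15 min.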

[4] abbreviates: NIH 3T3 cells, F508del correction.

Structures are written as SMILES. Read-outs that look alike come from different tables or passages of the source. Where only a bound is given, the exact number is not on record here.

T2 sequence (P13569 with tags, fused parts or gaps DEL508-508): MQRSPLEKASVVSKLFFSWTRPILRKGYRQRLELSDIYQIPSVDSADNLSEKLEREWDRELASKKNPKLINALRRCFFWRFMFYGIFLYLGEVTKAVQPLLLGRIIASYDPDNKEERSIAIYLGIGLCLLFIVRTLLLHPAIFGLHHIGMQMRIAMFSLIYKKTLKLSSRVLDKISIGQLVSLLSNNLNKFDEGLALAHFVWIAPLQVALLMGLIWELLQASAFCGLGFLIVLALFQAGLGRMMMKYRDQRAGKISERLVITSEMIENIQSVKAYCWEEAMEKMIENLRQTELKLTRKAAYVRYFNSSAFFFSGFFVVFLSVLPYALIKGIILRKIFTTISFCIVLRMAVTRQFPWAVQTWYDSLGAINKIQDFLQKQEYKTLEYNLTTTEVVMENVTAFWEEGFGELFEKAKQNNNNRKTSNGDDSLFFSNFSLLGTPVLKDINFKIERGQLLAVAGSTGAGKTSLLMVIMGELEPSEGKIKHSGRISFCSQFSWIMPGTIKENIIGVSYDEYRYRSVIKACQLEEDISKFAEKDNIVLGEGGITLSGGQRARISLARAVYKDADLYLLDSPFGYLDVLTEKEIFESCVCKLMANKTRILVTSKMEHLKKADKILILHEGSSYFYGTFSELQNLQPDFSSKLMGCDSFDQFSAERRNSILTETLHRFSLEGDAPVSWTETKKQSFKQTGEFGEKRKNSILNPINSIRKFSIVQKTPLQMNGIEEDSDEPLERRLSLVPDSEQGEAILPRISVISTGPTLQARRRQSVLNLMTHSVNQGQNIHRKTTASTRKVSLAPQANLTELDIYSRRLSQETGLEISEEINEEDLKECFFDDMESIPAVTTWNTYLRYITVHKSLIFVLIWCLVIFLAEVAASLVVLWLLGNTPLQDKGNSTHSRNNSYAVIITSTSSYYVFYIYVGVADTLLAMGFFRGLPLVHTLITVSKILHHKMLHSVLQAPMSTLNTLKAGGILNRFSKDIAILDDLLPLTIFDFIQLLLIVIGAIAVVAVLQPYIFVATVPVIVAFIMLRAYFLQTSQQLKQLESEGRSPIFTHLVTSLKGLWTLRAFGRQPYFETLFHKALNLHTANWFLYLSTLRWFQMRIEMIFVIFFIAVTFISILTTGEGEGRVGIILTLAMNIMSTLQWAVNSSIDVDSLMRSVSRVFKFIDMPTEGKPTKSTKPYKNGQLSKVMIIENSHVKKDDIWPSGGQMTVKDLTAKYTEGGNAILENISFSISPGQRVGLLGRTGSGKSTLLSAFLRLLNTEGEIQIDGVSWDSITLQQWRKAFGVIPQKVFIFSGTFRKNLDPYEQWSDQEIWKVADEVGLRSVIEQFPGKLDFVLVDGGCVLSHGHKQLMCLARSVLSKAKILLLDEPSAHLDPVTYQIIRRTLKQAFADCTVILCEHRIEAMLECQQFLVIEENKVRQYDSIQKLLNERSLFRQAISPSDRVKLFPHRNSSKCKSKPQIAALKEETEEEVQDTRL
T1 sequence (P13569 with tags, fused parts or gaps DEL508-508): as above

For `Cc1cccc(C)c1-c1cc2nc(n1)NS(=O)(=O)c1cccc(c1)NC(=O)Nc1cccc(c1)O2` [Compound 1, 5-(2,6-Dimethylphenyl)-9,9-dioxo-2-oxa-9λ^6-thia-6,8,15,17,24-pentazatetracyclo[16.3.1.13,7.110,14]tetracosa-1(21),3,5,7(24),10(23),11,13,18(22),19-nonaen-16-one], in series [1] (Enteroid Assay A), the “Ent. A Max Activity” value is listed as “++ (++ is 30-60%)” and the EC50 is 1 to 3 µM. Moreover, the EC50 in series [2] (setting [4]) lay in the range of 1 to 3 µM. Also, the ring closure, yield after HPLC (from 3-amino-N-[4-(3-aminophenoxy)-6-(2,6-dimethylphenyl)pyrimidin-2-yl]benzenesulfonamide (Dihydrochloride salt), crosslinker bond, 15-membered ring, 1,3-dimethyl-tetrahydro-pyrimidin-2-one, 26.2 mM) amounted to 13%.

As to `Cc1cccc(C)c1-c1cc2nc(n1)NS(=O)(=O)c1cccc(c1)C(=O)NC[C@@H](c1ccccc1)O2` [Compound 25, (10R)-6-(2,6-Dimethylphenyl)-2,2-dioxo-10-phenyl-9-oxa-2λ^6-thia-3,5,12,19-tetrazatricyclo[12.3.1.14,8]nonadeca-1(18),4(19),5,7,14,16-hexaen-13-one], in series [1] (Enteroid Assay A), the “Ent. A Max Activity” value is listed as “+++ (+++ is >600%)” and the concentration giving a half-maximal response (EC50) was less than 1 µM. Also, in series [3] (Enteroid Assay B), the “Ent. B Max Activity” value was “++ (++ is 30-60%)” and the EC50 is less than 1 µM. Further, the ring closure, yield after HPLC (from Cc1cccc(C)c1-c1cc(O[C@@H](CN)c2ccccc2)nc(NS(=O)(=O)c2cccc(C(=O)O)c2)n1, amide bond, 13-membered ring, HATU/DIEA, DMF, 25.9 mM, 25.0 °C, 1.0 h, 2 steps) was 23%.

For `Cc1cccc(C)c1-c1cc2nc(n1)NS(=O)(=O)c1cccc(c1)C(=O)NC[C@@H](C)O2` [Compound 28, (10R)-6-(2,6-dimethylphenyl)-10-methyl-2,2-dioxo-9-oxa-2λ^6-thia-3,5,12,19-tetrazatricyclo[12.3.1.14,8]nonadeca-1(18),4(19),5,7,14,16-hexaen-13-one], in series [1] (Enteroid Assay A), the “Ent. A Max Activity” value is reported as “+++ (+++ is >600%)” and the 50% effective concentration (EC50) lay in the range of 3 to 30 µM. Besides, in series [3] (Enteroid Assay B), the “Ent. B Max Activity” value is given as “++ (++ is 30-60%)” and the EC50 lay in the range of 3 to 30 µM. This molecule also had a ring closure, yield after HPLC (from Cc1cccc(C)c1-c1cc(O[C@H](C)CN)nc(NS(=O)(=O)c2cccc(C(=O)O)c2)n1, amide bond, 13-membered ring, HATU/DIEA, DMF, 46.7 mM, 25.0 °C, 1.0 h, 2 steps) of 46%.

With `Cc1cccc(C)c1-c1cc2nc(n1)NS(=O)(=O)c1cccc(c1)C(=O)N[C@H](CCC(C)C)CO2` [Compound 46, (11R)-6-(2,6-dimethylphenyl)-11-(3-methylbutyl)-9-oxa-2λ^6-thia-3,5,12,19-tetraazatricyclo[12.3.1.14,8]nonadeca-1(17),4,6,8(19),14(18),15-hexaene-2,2,13-trione], in series [1] (Enteroid Assay A), the “Ent. A Max Activity” value was “+++ (+++ is >600%)” and the EC50 was less than 1 µM. This molecule also showed an EC50 in series [2] (setting [4]) of less than 1 µM. Further, the ring closure, yield after HPLC (from Cc1cccc(C)c1-c1cc(OC[C@H](N)CCC(C)C)nc(NS(=O)(=O)c2cccc(C(=O)O)c2)n1, amide bond, 13-membered ring, HATU/DIEA, DMF, 9.1 mM, 25.0 °C, 1.0 h, 3 steps) was found to be 3%.

For the molecule `Cc1cccc(C)c1-c1cc2nc(n1)NS(=O)(=O)c1cncc(n1)C(=O)N[C@H](CC(C)C)CO2` [Compound 70, (11R)-6-(2,6-dimethylphenyl)-11-isobutyl-2,2-dioxo-9-oxa-2λ^6-thia-3,5,12,16,18,19-hexazatricyclo[12.3.1.14,8]nonadeca-1(18),4(19),5,7,14,16-hexaen-13-one], in series [3] (Table 9), the “Ent. B Max Activity” value is given as “+++ (+++ is >60%)” and the EC50 was less than 1 µM. The ring closure, yield after HPLC (from Cc1cccc(C)c1-c1cc(OC[C@H](N)CC(C)C)nc(NS(=O)(=O)c2cncc(C(=O)O)n2)n1, amide bond, 13-membered ring, HATU/DIEA, DMF, 18.6 mM, 25.0 °C, 25.0 h) is 29%.

As for `Cc1cc2cc(c1)S(=O)(=O)Nc1nc(cc(-c3c(C)cccc3C)n1)OC[C@@H](CC1CCCCC1)NC2=O` [Compound 74, (11R)-11-(Cyclohexylmethyl)-6-(2,6-dimethylphenyl)-16-methyl-2,2-dioxo-9-oxa-2λ^6-thia-3,5,12,19-tetrazatricyclo[12.3.1.14,8]nonadeca-1(18),4(19),5,7,14,16-hexaen-13-one], in series [1] (Enteroid Assay A), the “Ent. A Max Activity” value was “+++ (+++ is >600%)” and the EC50 is less than 1 µM. In series [2] (setting [4]), this molecule had an EC50 of less than 1 µM. The molecule further had a ring closure, yield after HPLC (from Cc1cc(C(=O)O)cc(S(=O)(=O)Nc2nc(OC[C@H](N)CC3CCCCC3)cc(-c3c(C)cccc3C)n2)c1, amide bond, 13-membered ring, HATU/TEA, DMF, 39.0 mM, 0.42 h) of 28%.

On to `Cc1cccc(C)c1-c1cc2nc(n1)NS(=O)(=O)c1cccc(c1C)C(=O)N[C@H](CC1CCCCC1)CO2` [Compound 75, (11R)-11-(Cyclohexylmethyl)-6-(2,6-dimethylphenyl)-18-methyl-9-oxa-2λ^6-thia-3,5,12,19-tetraazatricyclo[12.3.1.14,8]nonadeca-1(17),4(19),5,7,14(18),15-hexaene-2,2,13-trione], for which the “Ent. A Max Activity” value in series [1] (Table 8) is recorded as “+++ (+++ is >60%)”. Besides, the half-maximal effective concentration (EC50) in series [1] (Table 8) and in series [2] (Table 8) was less than 1 µM throughout. For the same molecule, the Emax in series [2] (NIH3T3, Table 8, read-out: 3T3 Max Activity) was greater than 60%. The molecule further came in with a ring closure, yield after HPLC (from Cc1cccc(C)c1-c1cc(OC[C@H](N)CC2CCCCC2)nc(NS(=O)(=O)c2cccc(C(=O)O)c2C)n1, amide bond, 13-membered ring, HATU/TEA, DMF, 40.1 mM, 0.42 h) of 8%.

Consider `Cc1cccc(C)c1-c1cc2nc(n1)NS(=O)(=O)c1cc(n(C)n1)C(=O)N[C@H](CC(C)C)CO2` [Compound 76, (10R)-15-(2,6-Dimethylphenyl)-10-isobutyl-6-methyl-3,3-dioxo-12-oxa-3λ^6-thia-2,5,6,9,16,17-hexazatricyclo[11.3.1.14,7]octadeca-1(17),4,7(18),13,15-pentaen-8-one], for which, in series [3] (Table 9), the “Ent. B Max Activity” value is given as “+++ (+++ is >60%)” and the EC50 is 1 to 3 µM. Under “from Cc1cccc(C)c1-c1cc(OC[C@H](N)CC(C)C)nc(NS(=O)(=O)c2cc(C(=O)O)n(C)n2)n1, amide bond, 13-membered ring, HATU/DIEA, DMF, 3.1 mM, 25.0 °C, 2.0 h”, this molecule returned a ring closure, yield after HPLC of 33%.

As for `Cc1cccc(C)c1-c1cc2nc(n1)NS(=O)(=O)c1cccc(c1)C(=O)N[C@H](CC(C)C)CO2` [Compound 96, (11R)-6-(2,6-Dimethylphenyl)-11-isobutyl-2,2-dioxo-9-oxa-2λ^6-thia-3,5,12,19-tetrazatricyclo[12.3.1.14,8]nonadeca-1(18),4(19),5,7,14,16-hexaen-13-one], in series [1] (Enteroid Assay A), the “Ent. A Max Activity” value is “+++ (+++ is >600%)”. The EC50 in series [1] (Enteroid Assay A), in series [3] (Enteroid Assay B) and in series [2] (setting [4]) was less than 1 µM each time. In addition, the ring closure, yield after HPLC (from Cc1cccc(C)c1-c1cc(OC[C@H](N)CC(C)C)nc(NS(=O)(=O)c2cccc(C(=O)O)c2)n1, amide bond, 13-membered ring, HATU/TEA, DMF, 31.8 mM, 25.0 °C, 3.0 h) worked out at 57%.

For `Cc1cccc(COCc2ccccc2)c1-c1cc2nc(n1)NS(=O)(=O)c1cccc(c1)C(=O)N[C@H](CC(C)C)CO2` [Compound 106, (11R)-6-[2-(benzyloxymethyl)-6-methyl-phenyl]-11-isobutyl-2,2-dioxo-9-oxa-2λ^6-thia-3,5,12,19-tetrazatricyclo[12.3.1.14,8]nonadeca-1(18),4(19),5,7,14,16-hexaen-13-one], in series [1] (Table 9), the “Ent. A Max Activity” value is listed as “+++ (+++ is >60%)” and the concentration giving a half-maximal response (EC50) is less than 1 µM. Moreover, the ring closure, yield after HPLC (from Cc1cccc(COCc2ccccc2)c1-c1cc(OC[C@H](N)CC(C)C)nc(NS(=O)(=O)c2cccc(C(=O)O)c2)n1, amide bond, 13-membered ring, HATU/DIEA, DMF, 48.7 mM, 25.0 °C, 0.5 h) is 30%.

Take `Cc1cccc(C)c1-c1cc2nc(n1)NS(=O)(=O)c1cccc(c1)C(=O)N[C@H](CC1CCC1)CO2` [Compound 113, (11R)-11-(cyclobutylmethyl)-6-(2,6-dimethylphenyl)-9-oxa-2λ^6-thia-3,5,12,19-tetraazatricyclo[12.3.1.14,8]nonadeca-1(17),4,6,8(19),14(18),15-hexaene-2,2,13-trione]: in series [1] (Enteroid Assay A), the “Ent. A Max Activity” value was “+++ (+++ is >600%)” and the half-maximal effective concentration (EC50) was less than 1 µM. This molecule also displayed an EC50 in series [2] (setting [4]) of less than 1 µM. Moreover, the ring closure, yield after HPLC (from Cc1cccc(C)c1-c1cc(OC[C@H](N)CC2CCC2)nc(NS(=O)(=O)c2cccc(C(=O)O)c2)n1, amide bond, 13-membered ring, HATU/DIEA, DMF, 65.5 mM, 25.0 °C, 1.0 h, 2 steps) was determined as 21%.

As for `Cc1cccc(C)c1-c1cc2nc(n1)NS(=O)(=O)c1cccc(c1)C(=O)N[C@H](CC1CC1)CO2` [Compound 114, (11R)-11-(Cyclopropylmethyl)-6-(2,6-dimethylphenyl)-9-oxa-2λ^6-thia-3,5,12,19-tetraazatricyclo[12.3.1.14,8]nonadeca-1(17),4(19),5,7,14(18),15-hexaene-2,2,13-trione], in series [1] (Enteroid Assay A), the “Ent. A Max Activity” value is on record as “+++ (+++ is >600%)” and the half-maximal effective concentration (EC50) was less than 1 µM. The molecule also displayed a ring closure, yield after HPLC (from Cc1cccc(C)c1-c1cc(OC[C@H](N)CC2CC2)nc(NS(=O)(=O)c2cccc(C(=O)O)c2)n1, amide bond, 13-membered ring, HATU/TEA, DMF, 18.8 mM, 17.0 h) of 61%.

The term EC50 denotes the concentration at which the effect is half-maximal.
